In brackets after ≈: the same amount, converted by molar mass. Where two headings read alike, the source gives them in different places.
Key:
E. coli NIHJ = assay: Minimum Inhibitory Concentration, agar dilution, E. coli NIHJ; assay type: cell-based; conditions: Escherichia coli, read-out: Minimum Inhibitory Concentration
From the text: (§1) […]. | Minimum Inhibitory Concentrations (mcg/ml, agar dilution)

P. vulgaris IFO 3988 = assay: Minimum Inhibitory Concentration, agar dilution, P. vulgaris IFO 3988; assay type: cell-based; conditions: Proteus vulgaris
From the text: as §1

Cit. freundii GN 1706 = assay: Minimum Inhibitory Concentration, agar dilution, Cit. freundii GN 1706; assay type: cell-based; conditions: Citrobacter freundii
From the text: as §1

Escherichia coli O-111 = assay: Comparative protection test on infected mice; assay type: in vivo; conditions: O111, sc, 168 h; male ICR/SLC mice infected intraperitoneally with Escherichia coli O-111; single subcutaneous dose immediately after challenge; 7 days observation
From the text: (§2) Following each example is a tabulation of the minimal inhibitory concentrations (MIC) of the present compound [I] obtained in accordance with the particular example against several representative gram-negative bacteria and the corresponding concentrations of cephaloridine [7-(2-thienylacetamido)-3-(1-pyridyl)methyl-3-cephem-4-carboxylic acid betaine] and cefazolin [sodium 7-(1H-tetrazol-1-yl)acetamido-3-(2-methyl-1,3,4-thiadiazol-5-yl)thiomethyl-3-cephem-4-carboxylate], both of which are typical cephalosporins commercially available and clinically accepted nowadays [The New England Journal of Medicine 294, 24 (1976) and Journal of Pharmaceutical Science 64, 1899 (1975)]. There are also shown the effective doses of the typical compounds of this invention on the mice infected with Escherichia coli in comparison with that of cephaloridine.
Comparative protection tests of the compounds of this
invention and cephaloridine on infected mice
*Test animals: male mice (ICR/SLC) 5 mice per group per single dose
Infection: intraperitoneally with Escherichia coli O-111
Administration: a single subcutaneous dose immediately after challenge
Observation period: 7 days

K. pneumoniae DT = assay: Minimum Inhibitory Concentration, agar dilution, K. pneumoniae DT; assay type: cell-based; conditions: Klebsiella pneumoniae, read-out: Minimum Inhibitory Concentration
From the text: as §1

Ent. cloacae IFO 12937 = assay: Minimum Inhibitory Concentration, agar dilution, Ent. cloacae IFO 12937; assay type: cell-based; conditions: Enterobacter cloacae
P. rettgeri GN 4733 = assay: Minimum Inhibitory Concentration, agar dilution, P. rettgeri GN 4733; assay type: cell-based, Proteus rettgeri; conditions: Providencia rettgeri
From the text: as §1

P. rettgeri 8(TNO 336) = assay: Minimum Inhibitory Concentration, agar dilution, P. rettgeri 8(TNO 336); assay type: cell-based, Proteus rettgeri; conditions: Providencia rettgeri
From the text: as §1

E. coli O-111 = assay: Minimum Inhibitory Concentration, agar dilution, E. coli O-111; assay type: cell-based; conditions: Escherichia coli, O111; E. coli O-111; agar dilution; read-out: Minimum Inhibitory Concentration
From the text: as §2
Minimum Inhibitory Concentrations (mcg/ml, agar dilution)

P. mirabilis GN 4359 = assay: Minimum Inhibitory Concentration, agar dilution, P. mirabilis GN 4359; assay type: cell-based; conditions: Proteus mirabilis
From the text: as §1

E. coli T-7 = assay: Minimum Inhibitory Concentration, agar dilution, E. coli T-7; assay type: cell-based; conditions: Escherichia coli
From the text: as §1

Cit. freundii GN 99 = assay: Minimum Inhibitory Concentration, agar dilution, Cit. freundii GN 99; assay type: cell-based; conditions: Citrobacter freundii
From the text: as §1

K. pneumoniae GN 3835 = assay: Minimum Inhibitory Concentration, agar dilution, K. pneumoniae GN 3835; assay type: cell-based; conditions: Klebsiella pneumoniae
From the text: as §1

P. morganii IFO 3168 = assay: Minimum Inhibitory Concentration, agar dilution, P. morganii IFO 3168; assay type: cell-based, Proteus morganii; conditions: Morganella morganii
From the text: as §1

[1] = IFO3988, P. vulgaris IFO 3988, agar dilution, read-out: Minimum Inhibitory Concentration
[2] = GN1706, Cit. freundii GN 1706, agar dilution, read-out: Minimum Inhibitory Concentration
[3] = IFO12937, Ent. cloacae IFO 12937, agar dilution, read-out: Minimum Inhibitory Concentration
[4] = GN4733, P. rettgeri GN 4733, agar dilution, read-out: Minimum Inhibitory Concentration
[5] = P. rettgeri 8(TNO 336), read-out: Minimum Inhibitory Concentration
[6] = GN4359, read-out: Minimum Inhibitory Concentration
[7] = T7, E. coli T-7, agar dilution, read-out: Minimum Inhibitory Concentration
[8] = GN99, Cit. freundii GN 99, agar dilution, read-out: Minimum Inhibitory Concentration
[9] = GN3835, K. pneumoniae GN 3835, agar dilution, read-out: Minimum Inhibitory Concentration
[10] = IFO3168, P. morganii IFO 3168, agar dilution, read-out: Minimum Inhibitory Concentration
[11] = K. pneumoniae DT, agar dilution
[12] = GN4359, P. mirabilis GN 4359, agar dilution, read-out: Minimum Inhibitory Concentration

Structure (SMILES) | MIC (E. coli NIHJ; E. coli NIHJ, agar dilution) [µg/mL] | MIC (P. vulgaris IFO 3988; [1]) [µg/mL] | MIC (Cit. freundii GN 1706; [2]) [µg/mL] | ED50 (Escherichia coli O-111) [mg/kg] | MIC (Ent. cloacae IFO 12937; [3]) [µg/mL] | MIC (P. rettgeri GN 4733; [4]) [µg/mL] | MIC (P. rettgeri 8(TNO 336); [5]) [µg/mL] | MIC (E. coli O-111) [µg/mL] | MIC (E. coli T-7; [7]) [µg/mL] | MIC (Cit. freundii GN 99; [8]) [µg/mL] | MIC (K. pneumoniae GN 3835; [9]) [µg/mL] | MIC (P. morganii IFO 3168; [10]) [µg/mL] | MIC (K. pneumoniae DT; [11]) [µg/mL] | MIC (P. mirabilis GN 4359; [12]) [µg/mL] | further results
O=C(Cc1cccs1)N[C@@H]1C(=O)N2C(C(=O)[O-])=C(C[n+]3ccccc3)CS[C@H]12 [Cephaloridine, 7-(2-thienylacetamido)-3-(1-pyridyl)methyl-3-cephem-4-carboxylic acid betaine, reference compound] | 6.25 (≈ 15 µM) | 6.25 (≈ 15 µM) | > 100 | 2.6 | > 100 | > 100 | 1.56 (≈ 3.75 µM) | 3.13 (≈ 7.53 µM) | > 100 | 50 (≈ 120 µM) | 50 (≈ 120 µM) | > 100 | – | – | MIC (K. pneumoniae DT): 3.13 µg/mL (≈ 7.53 µM); MIC (P. mirabilis GN 4359; [6]): 3.13 µg/mL (≈ 7.53 µM)
CC(=O)OCC1=C(C(=O)O)N2C(=O)C(NC(=O)Cc3csc(=N)n3O)C2SC1 (stereo not drawn) [Example 1, sodium 7-[2-(2-imino-3-hydroxy-4-thiazolin-4-yl)acetamido]-3-acetoxymethyl-3-cephem-4-carboxylate] | 0.2 | 0.39 | 3.13 | 0.075 | 12.5 | 0.1 | ≤ 0.03 | 0.1 | 3.13 | 1.56 | 0.2 | 0.39 | 0.1 | 0.2 | –
Cc1nnc(SCC2=C(C(=O)O)N3C(=O)C(NC(=O)Cc4csc(=N)n4O)C3SC2)o1 (stereo not drawn) [Example 6, sodium 7-[2-(2-imino-3-hydroxy-4-thiazolin-4-yl)acetamido]-3-(5-methyl-1,3,4-oxadiazol-2-yl) thiomethyl-3-cephem-4-carboxylate] | 0.1 | 0.2 | 1.56 | 0.071 | 50 | 0.1 | ≤ 0.012 | 0.05 | 3.13 | 0.78 | 0.78 | 0.1 | 0.1 | 0.1 | –
N=c1scc(CC(=O)NC2C(=O)N3C(C(=O)[O-])=C(COC(N)=O)CS[C@H]23)n1O.[Na+] (stereo partly drawn) [Example 13, sodium 7-[2-(2-imino-3-hydroxy-4-thiazolin-4-yl)acetamido]-3-(carbamoyloxymethyl)-3-cephem-4-carboxylate] | – | – | – | 0.084 | – | – | – | 0.1 | – | – | – | – | – | – | MIC (E. coli NIHJ): 0.2 µg/mL; MIC (P. vulgaris IFO 3988; IFO3988, read-out: Minimum Inhibitory Concentration): 0.39 µg/mL; MIC (Cit. freundii GN 1706; GN1706, read-out: Minimum Inhibitory Concentration): 3.13 µg/mL; MIC (K. pneumoniae DT): 0.2 µg/mL; MIC (Ent. cloacae IFO 12937; IFO12937, read-out: Minimum Inhibitory Concentration): 50 µg/mL; MIC (P. rettgeri GN 4733; GN4733, read-out: Minimum Inhibitory Concentration): 0.2 µg/mL; MIC (P. rettgeri 8(TNO 336); read-out: Minimum Inhibitory Concentration, P. rettgeri 8(TNO 336)): ≤ 0.012 µg/mL; MIC (P. mirabilis GN 4359; [6]): 0.2 µg/mL; MIC (E. coli T-7; T7, read-out: Minimum Inhibitory Concentration): 1.56 µg/mL; MIC (Cit. freundii GN 99; GN99, read-out: Minimum Inhibitory Concentration): 0.78 µg/mL; MIC (K. pneumoniae GN 3835; GN3835, read-out: Minimum Inhibitory Concentration): 0.2 µg/mL; MIC (P. morganii IFO 3168; IFO3168, read-out: Minimum Inhibitory Concentration): 0.78 µg/mL
Cc1nnc(SCC2=C(C(=O)O)N3C(=O)C(NC(=O)Cc4csc(=N)n4O)C3SC2)s1 (stereo not drawn) [Example 4, sodium 7-[2-(2-imino-3-hydroxy-4-thiazolin-4-yl)acetamido]-3-(2-methyl-1,3,4-thiadiazol-5-yl)thiomethyl-3-cephem-4-carboxylate] | 0.05 | 0.1 | 1.56 | 0.019 | 50 | 0.1 | 0.012 | 0.024 | 1.56 | 0.78 | 0.2 | 0.1 | 0.05 | 0.05 | –
N=c1scc(CC(=O)NC2C(=O)N3C(C(=O)[O-])=C(C[n+]4ccc(C(N)=O)cc4)CSC23)n1O (stereo not drawn) [Example 10, 7-[2-(2-imino-3-hydroxy-4-thiazolin-4-yl)acetamido]-3-(4-carbamoylpyridinium)methyl-3-cephem-4-carboxylic acid betain] | 1.56 (≈ 3.18 µM) | 0.78 (≈ 1.59 µM) | 12.5 (≈ 25.5 µM) | 0.089 | 25 (≈ 51 µM) | ≤ 0.2 | ≤ 0.2 | 0.39 (≈ 0.795 µM) | 25 (≈ 51 µM) | 1.56 (≈ 3.18 µM) | 1.56 (≈ 3.18 µM) | 3.13 (≈ 6.38 µM) | 0.78 (≈ 1.59 µM) | 0.78 (≈ 1.59 µM) | –
Cn1nnnc1SCC1=C(C(=O)O)N2C(=O)C(NC(=O)Cc3csc(=N)n3O)[C@H]2SC1 (stereo partly drawn) [Example 9, 7-[2-(2-imino-3-hydroxy-4-thiazolin-4-yl)acetamido]-3-(1-methyltetrazol-5-yl)thiomethyl-3-cephem-4-carboxylic acid] | – | – | – | 0.04 | – | – | – | – | – | – | – | – | – | – | –
N=c1scc(CC(=O)NC2C(=O)N3C(C(=O)O)=C(CSc4c[nH]nn4)CSC23)n1O (stereo not drawn) [Example 7, sodium 7-[2-(2-imino-3-hydroxy-4-thiazolin-4-yl)acetamido]-3-(1H-1,2,3-triazol-4-yl)thiomethyl-3-cephem-4-carboxylate] | 0.78 | 0.2 | 12.5 | 0.056 | > 100 | 0.78 | ≤ 0.03 | 0.05 | 3.13 | 1.56 | 0.1 | 0.39 | 0.1 | 0.1 | –

Reference: patent US4172891A, “Cephalosporins” (Takeda Chemical Industries, Inc., priority 1976, dated 1979)
